Reference: US9345722B2, “Pharmaceutical formulations for the treatment of alzheimer's disease” (EMISPHERE TECHNOLOGIES, INC., priority 2006, dated 2016)

Tests used:
[1] = CPHPC added to solvents to the point of saturation (donor solutions); format: physicochemical; settings: ethanolamine as solvent
Experimental: CPHC was added to the solvents listed in Table 1 below to the point of saturation: […]

[2] = investigational studies, background; cited from earlier work
[3] = Oral delivery of CPHPC in rats, serum CPHPC concentrations; format: in vivo
Experimental: One group of rats were dosed by oral gavage a solution containing 200 mg/kg SNAC and 10 mg/kg CPHPC (Group 1). The dosing volume was 1 mL/kg. Two groups of rats also received, respectively, control arms of 10 mg/kg CPHPC alone via oral gavage (Group 2) and 0.2 mg/kg of CPHPC via IV (Group 3).
Serum CPHPC concentrations […]) were measured over 40 minutes.

Solubility of CPHPC in ethanolamine compared with the other solvents [1]: much more soluble in ethanolamine | Serum CPHPC concentration ([3]; Group 1: 200 mg/kg SNAC and 10 mg/kg CPHPC via PO, 0 min.): 0 ng/mL | Serum CPHPC concentration ([3]; Group 1: 200 mg/kg SNAC and 10 mg/kg CPHPC via PO, 5 min.): 2960 ± 1210 ng/mL | Serum CPHPC concentration ([3]; Group 1: 200 mg/kg SNAC and 10 mg/kg CPHPC via PO, 10 min.): 5480 ± 526 ng/mL | Serum CPHPC concentration ([3]; Group 1: 200 mg/kg SNAC and 10 mg/kg CPHPC via PO, 20 min.): 2800 ± 400 ng/mL | Serum CPHPC concentration ([3]; Group 1: 200 mg/kg SNAC and 10 mg/kg CPHPC via PO, 40 min.): 1440 ± 219 ng/mL | Serum CPHPC concentration ([3]; Group 2: 10 mg/kg CPHPC alone via PO, 0 min.): 0 ng/mL | Serum CPHPC concentration ([3]; Group 2: 10 mg/kg CPHPC alone via PO, 5 min.): 1060 ± 107 ng/mL | Serum CPHPC concentration ([3]; Group 2: 10 mg/kg CPHPC alone via PO, 10 min.): 1420 ± 171 ng/mL | Serum CPHPC concentration ([3]; Group 2: 10 mg/kg CPHPC alone via PO, 20 min.): 667 ± 97.1 ng/mL | Serum CPHPC concentration ([3]; Group 2: 10 mg/kg CPHPC alone via PO, 40 min.): 175 ± 15 ng/mL | Serum CPHPC concentration ([3]; Group 3: 0.2 mg/kg CPHPC via IV, 0 min.): 0 ng/mL | Serum CPHPC concentration ([3]; Group 3: 0.2 mg/kg CPHPC via IV, 5 min.): 223 ± 19.5 ng/mL | Serum CPHPC concentration ([3]; Group 3: 0.2 mg/kg CPHPC via IV, 10 min.): 229 ± 44.8 ng/mL | Serum CPHPC concentration ([3]; Group 3: 0.2 mg/kg CPHPC via IV, 20 min.): 170 ± 26.2 ng/mL | Serum CPHPC concentration ([3]; Group 3: 0.2 mg/kg CPHPC via IV, 40 min.): 65.4 ± 25.7 ng/mL
Structure (SMILES): O=C(O)[C@H]1CCCN1C(=O)CCCCC(=O)N1CCC[C@@H]1C(=O)O [CPHPC, R-1-(6-(R-2-carboxy-pyrrolidin-1-yl)-6-oxo-hexanoyl)pyrrolidine-2-carboxylic acid]
oral bioavailability [2]: poor oral bioavailability
